According to ChEMBL document CHEMBL5537209, “Teleocidin B-4, a PKC Activator, Upregulates Hypoxia-Inducible Factor 1 (HIF-1) Activity by Promoting the Accumulation of HIF-1α Protein via the PKCα/mTORC Signaling Pathway” (J Nat Prod, 2024):
The source made the active and inactive calls. The rule behind the calls is not given here.

Legend:
Assay type in all cases: cell-based
HeLa [1] = test: Activation of HIF-1 transcriptional activity in human HeLa cells transfected with 5xHRE-Luc/UCHL1 reporter at 0.1 to 10 uM preincubated for 1 hr under normoxic condition followed by 24 hrs incubation under hypoxic condition by luciferase reporter assay; details: filed as activator, dose 0.1-10 µM, time 25.0 hrs
HeLa [2] = test: Activation of HIF-1 transcriptional activity in human HeLa cells transfected with 5xHRE-Luc/UCHL1 reporter at 10 ng/ml pretreated with Go6976 for 1 hr followed by 24 hrs incubation under hypoxic condition by luciferase reporter assay
HeLa S3 [3] = test: Activation of HIF-1 in human HeLa S3 cells assessed as increase in HIF-1alpha protein level at 10 ng/ml pretreated with Go6983 for 1 hr followed by 12 hrs incubation under hypoxic condition by Western blotting analysis
HeLa [4] = test: Activation of HIF-1 transcriptional activity in human HeLa cells transfected with 5xHRE-Luc/UCHL1 reporter at 10 ng/ml pretreated with torin1 for 1 hr followed by 24 hrs incubation under hypoxia condition by luciferase reporter assay
HeLa S3 [5] = test: Activation of HIF-1 transcriptional activity in human HeLa S3 cells transfected with 5xHRE-Luc/UCHL1 reporter and PKCalpha siRNA assessed as upregulation of HIF-1alpha protein level at 10 ng/ml incubated for 12 hrs under hypoxia condition by Western blotting assay
HeLa S3 [6] = test: Activation of HIF-1 in human HeLa S3 cells assessed as increase in VEGF mRNA level at 10 ng/ml pretreated with Go6983 for 1 hr followed by 6 hrs incubation under hypoxic condition by real-time quantitative PCR analysis
HeLa S3 [7] = test: Activation of HIF-1 in human HeLa S3 cells assessed as increase in VEGF mRNA level at 0.1 to 10 ng/ml preincubated for 1 hr under normoxic condition followed by 6 hrs incubation under hypoxic condition by real-time quantitative PCR analysis; details: filed as activator, dose 0.1-10 ng/ml, time 7.0 hrs
HeLa [8] = test: Activation of HIF-1 transcriptional activity in human HeLa cells transfected with 5xHRE-Luc/UCHL1 reporter at 0.1 to 1000 ng/ml preincubated for 1 hr under normoxic condition followed by 24 hrs incubation under hypoxic condition by luciferase reporter assay; details: filed as activator, dose 0.1-1000 ng/ml, time 25.0 hrs
HeLa S3 [9] = test: Activation of PKCalpha/mTORC pathway in human HeLa S3 cells assessed as accumulation of phosphorylated ribosomal protein S6 at 10 ng/ml incubated for 12 hrs under hypoxia condition by Western blotting analysis; details: filed as activator
HeLa [10] = test: Activation of HIF-1 transcriptional activity in human HeLa cells transfected with 5xHRE-Luc/UCHL1 reporter and PKCalpha siRNA at 10 ng/ml incubated for 24 hrs under hypoxia condition by luciferase reporter assay
HeLa [11] = test: Activation of HIF-1 transcriptional activity in human HeLa cells transfected with 5xHRE-Luc/UCHL1 reporter and PKCdelta siRNA at 10 ng/ml incubated for 24 hrs under hypoxia condition by luciferase reporter assay; details: filed as activator
HeLa S3 [12] = test: Activation of HIF-1 in human HeLa S3 cells assessed as increase in HIF-1alpha protein level at 0.1 to 10 ng/ml preincubated for 1 hr under normoxic condition followed by 12 hrs incubation under hypoxic condition by Western blotting analysis; details: filed as activator, dose 0.1-10 ng/ml, time 13.0 hrs
HeLa [13] = test: Activation of HIF-1 transcriptional activity in human HeLa cells transfected with 5xHRE-Luc/UCHL1 reporter at 0.1 to 100 ng/ml pretreated with Go6983 for 1 hr followed by 24 hrs incubation under hypoxic condition by luciferase reporter assay; details: dose 0.1-100 ng/ml
HeLa S3 [14] = test: Activation of PKCalpha/mTORC pathway in human HeLa S3 cells transfected with PKCalpha siRNA assessed as accumulation of phosphorylated ribosomal protein S6 at 10 ng/ml incubated for 12 hrs under hypoxia condition by Western blotting analysis
HeLa S3 [15] = test: Activation of PKCdelta/mTORC pathway in human HeLa S3 cells transfected with PKCdelta siRNA assessed as accumulation of phosphorylated ribosomal protein S6 at 10 ng/ml incubated for 12 hrs under hypoxia condition by Western blotting analysis; details: filed as activator
HeLa S3 [16] = test: Activation of HIF-1 in human HeLa S3 cells assessed as increase in HIF-1alpha protein level at 10 ng/ml pretreated with MG132 for 1 hr followed by 12 hrs incubation under normoxic condition by Western blotting analysis; details: filed as activator
HeLa S3 [17] = test: Activation of HIF-1 in human HeLa S3 cells assessed as increase in VEGF mRNA level at 10 ng/ml preincubated for 1 hr under normoxic condition followed by 6 hrs incubation under hypoxic condition by real-time quantitative PCR analysis; details: filed as activator, time 7.0 hrs
HeLa S3 [18] = test: Activation of HIF-1 in human HeLa S3 cells assessed as increase in HIF-1alpha protein level at 10 ng/ml preincubated for 1 hr under normoxic condition followed by 12 hrs incubation under hypoxic condition by Western blotting analysis; details: filed as activator, time 13.0 hrs

Row | SMILES | Activity (HeLa [1]) | Activity (HeLa [2]) | Activity (HeLa S3 [3]) | Activity (HeLa [4]) | Activity (HeLa S3 [5]) | Activity (HeLa S3 [6]) | Activity (HeLa S3 [7]) | Activity (HeLa [8]) | Activity (HeLa S3 [9]) | Activity (HeLa [10]) | Activity (HeLa [11]) | Activity (HeLa S3 [12]) | Activity (HeLa [13]) | Activity (HeLa S3 [14]) | Activity (HeLa S3 [15]) | Activity (HeLa S3 [16]) | Activity (HeLa S3 [17]) | Activity (HeLa S3 [18])
1 | C[C@H]1[C@@H]2C[C@@]3(O[C@H](CCC3(C)C)CC(=O)O[C@@H](CO)CC(=O)O2)O[C@@H]1CCCCc1cccc(O)c1 | Active |  |  |  |  |  |  |  |  |  |  |  |  |  |  |  |  | 
2 | C=C[C@@]1(C)CC[C@](C)(C(C)C)c2cc3c4c(c[nH]c4c21)C[C@@H](CO)NC(=O)[C@H](C(C)C)N3C |  | inactive | inactive | inactive | inactive | inactive | Active | Active | Active | inactive | Active | Active | inactive | inactive | Active | Active |  | 
3 | CCCCCCCCCCCCCC(=O)O[C@@H]1[C@@H](C)[C@@]2(O)[C@@H](C=C(CO)C[C@]3(O)C(=O)C(C)=C[C@@H]23)[C@@H]2C(C)(C)[C@]12OC(C)=O |  | inactive |  |  | inactive |  |  | Active | Active | inactive | Active |  |  | inactive | Active | Active | Active | Active
